One assay addresses JNK1 (Homo sapiens, UniProt P45983). Briefly: In vitro JNK1 inhibition (Table 1). The assay is classed as biochemical. How it is done: (§1) In vitro assays for the determination of JNK activities are known in the art and exemplary assay formats are described herein.
(§2) IC50 values in Table 1 were determined using the procedures as described in U.S. Pat. No. 8,450,353.

A further assay deals with JNK3 (Homo sapiens, UniProt P53779). Put plainly: In vitro JNK3 inhibition (Table 1). The assay is classed as biochemical. Here is the method:
as §1, §2

A value given as a limit tells only on which side of the number the result lay.

Chain of JNK1 (P45983 whole entry, species assumed): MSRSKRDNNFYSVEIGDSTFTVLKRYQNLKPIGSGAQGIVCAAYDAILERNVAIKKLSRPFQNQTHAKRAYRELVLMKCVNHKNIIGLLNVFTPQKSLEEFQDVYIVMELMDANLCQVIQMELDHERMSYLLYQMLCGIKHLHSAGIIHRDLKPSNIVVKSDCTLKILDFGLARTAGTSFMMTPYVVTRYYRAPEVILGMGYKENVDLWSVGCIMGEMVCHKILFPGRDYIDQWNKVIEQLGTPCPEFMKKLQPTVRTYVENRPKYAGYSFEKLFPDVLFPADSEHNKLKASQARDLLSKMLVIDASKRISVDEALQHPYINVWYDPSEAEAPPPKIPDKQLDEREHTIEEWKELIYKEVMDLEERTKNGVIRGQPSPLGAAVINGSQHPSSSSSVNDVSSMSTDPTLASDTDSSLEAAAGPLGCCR
Chain of JNK3 (P53779 whole entry, species assumed): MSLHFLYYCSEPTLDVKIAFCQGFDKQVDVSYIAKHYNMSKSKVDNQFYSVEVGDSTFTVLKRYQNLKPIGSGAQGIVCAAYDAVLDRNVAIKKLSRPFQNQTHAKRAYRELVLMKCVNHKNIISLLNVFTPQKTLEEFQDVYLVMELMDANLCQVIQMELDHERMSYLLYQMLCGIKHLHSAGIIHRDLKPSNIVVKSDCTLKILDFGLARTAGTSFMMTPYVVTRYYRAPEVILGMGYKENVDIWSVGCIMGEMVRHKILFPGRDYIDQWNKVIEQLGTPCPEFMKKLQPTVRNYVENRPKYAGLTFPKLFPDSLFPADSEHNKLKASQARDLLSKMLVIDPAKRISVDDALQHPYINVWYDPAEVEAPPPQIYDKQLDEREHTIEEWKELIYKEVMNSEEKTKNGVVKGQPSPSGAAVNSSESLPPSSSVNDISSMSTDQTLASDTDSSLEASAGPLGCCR

Turning to `O=C(Cn1c(=O)ccc2cc(F)c(F)cc21)Nc1sccc1-c1ncon1` [N-(3-(1,2,4-oxadiazol-3-yl)thiophen-2-yl)-2-(6,7-difluoro-2-oxoquinolin-1(2H)-yl)acetamide], the IC50 – broadly, the midpoint of a concentration-inhibition curve – at JNK1 was below 100 nM.

Regarding `O=C(CN1C(=O)CCc2ncccc21)Nc1scc(Br)c1-c1nccs1` [N-(4-bromo-3-(thiazol-2-yl)thiophen-2-yl)-2-(2-oxo-3,4-dihydro-1,5-naphthyridin-1(2H)-yl)acetamide], the IC50 at JNK1 and on JNK3 was below 100 nM in each case.

In the case of `O=C(Cc1cccc2ncc(C(F)(F)F)cc12)Nc1scc(Br)c1-c1nc[nH]n1` [N-(4-bromo-3-(1H-1,2,4-triazol-3-yl)thiophen-2-yl)-2-(3-(trifluoromethyl)quinolin-5-yl)acetamide], the IC50 on JNK1 and on JNK3 was below 100 nM each time.

Consider `COc1ccc(CC(=O)Nc2ccsc2-n2cccn2)cc1` [N-(2-(1H-pyrazol-1-yl)thiophen-3-yl)-2-(4-methoxyphenyl)-acetamide], for which the IC50 against JNK1 and on JNK3 was above 10000 nM each time.

Turning to `COc1ccc(CC(=O)Nc2ccsc2-c2nnc(C(C)C)o2)cc1` [N-(2-(5-isopropyl-1,3,4-oxadiazol-2-yl)thiophen-3-yl)-2-(4-methoxyphenyl)acetamide], the half-inhibitory concentration (IC50) against JNK1 and against JNK3 was above 10000 nM each time.

As for `O=C(Cc1cccc2ccccc12)Nc1ccsc1-n1ccnc1` [N-(2-(1H-imidazol-1-yl)thiophen-3-yl)-2-(naphthalen-1-yl)acetamide], the IC50 on JNK3 lay in the range of 100 to 10000 nM.

As to `O=C(Cc1cccc2ccncc12)Nc1scc(Br)c1-c1ncn[nH]1` [N-(4-bromo-3-(1H-1,2,4-triazol-5-yl)thiophen-2-yl)-2-(isoquinolin-8-yl)acetamide], the IC50 against JNK1 and on JNK3 was below 100 nM throughout.

`O=C(Cn1c(=O)ccc2cnccc21)Nc1ccsc1-c1cscn1` [2-(2-oxo-1,6-naphthyridin-1(2H)-yl)-N-(2-(thiazol-4-yl)thiophen-3-yl)acetamide] had an IC50 on JNK1 below 100 nM.

Take `Cc1nc(-c2sccc2NC(=O)Cc2cccc3ccccc23)n(C)n1` [N-(2-(1,3-dimethyl-1H-1,2,4-triazol-5-yl)thiophen-3-yl)-2-(naphthalen-1-yl)acetamide]: the IC50 on JNK1 and on JNK3 was above 10000 nM throughout.

`CCc1n[nH]c(-c2c(Cl)csc2NC(=O)CN2C(=O)CCc3ncccc32)n1` [N-(4-chloro-3-(3-ethyl-1H-1,2,4-triazol-5-yl)thiophen-2-yl)-2-(2-oxo-3,4-dihydro-1,5-naphthyridin-1(2H)-yl)acetamide]: the IC50 at JNK1 and on JNK3 was below 100 nM each time.

As for `O=C(Cn1c(=O)ccc2c(C(F)(F)F)cccc21)Nc1scc(Br)c1-c1ncn[nH]1` [N-(4-bromo-3-(1H-1,2,4-triazol-5-yl)thiophen-2-yl)-2-(2-oxo-5-(trifluoromethyl)quinolin-1(2H)-yl)acetamide], the IC50 against JNK1 and at JNK3 was below 100 nM throughout.

Regarding `Cc1cn2c(CC(=O)Nc3scc(Br)c3-c3ncn[nH]3)csc2n1` [N-(4-bromo-3-(1H-1,2,4-triazol-5-yl)thiophen-2-yl)-2-(6-methylimidazo[2,1-b]thiazol-3-yl)acetamide], the IC50 against JNK1 was below 100 nM.

Consider `O=C(Cc1ccc(F)c2ncccc12)Nc1scc(Br)c1-c1ncn[nH]1` [N-(4-bromo-3-(1H-1,2,4-triazol-5-yl)thiophen-2-yl)-2-(8-fluoroquinolin-5-yl)acetamide], for which the IC50 on JNK1 and against JNK3 was below 100 nM in each case.

As to `O=C(CN1C(=O)CCc2ccccc21)Nc1sccc1-c1ncn[nH]1` [N-(3-(1H-1,2,4-triazol-5-yl)thiophen-2-yl)-2-(2-oxo-3,4-dihydroquinolin-1(2H)-yl)acetamide], at JNK1, the IC50 is below 100 nM.

In the case of `COc1ccc(CC(=O)Nc2ccsc2-n2nccn2)cc1` [N-(2-(2H-1,2,3-triazol-2-yl)thiophen-3-yl)-2-(4-methoxyphenyl)acetamide], the IC50 against JNK1 and against JNK3 was 100 to 10000 nM throughout.

In the case of `O=C(Cc1cccc2cnccc12)Nc1scnc1-c1cscn1` [N-(4,4′-bithiazol-5-yl)-2-(isoquinolin-5-yl)acetamide], the IC50 on JNK1 and at JNK3 was below 100 nM throughout.

With `O=C(Cc1ccnc2ccccc12)Nc1scc(Br)c1-c1nnc[nH]1` [N-(4-bromo-3-(4H-1,2,4-triazol-3-yl)thiophen-2-yl)-2-(quinolin-4-yl)acetamide], the concentration for half-maximal inhibition (IC50) at JNK1 and at JNK3 was below 100 nM throughout.

As to `CN1CCN(CCCn2cnc(-c3c(Cl)csc3NC(=O)Cn3c(=O)ccc4cc(C(F)(F)F)ccc43)n2)CC1` [N-(4-chloro-3-(1-(3-(4-methylpiperazin-1-yl)propyl)-1H-1,2,4-triazol-3-yl)thiophen-2-yl)-2-(2-oxo-6-(trifluoromethyl)quinolin-1(2H)-yl)acetamide], the IC50 against JNK1 and at JNK3 was below 100 nM in each case.

For the compound `O=C(Cc1cc2ncccc2cc1F)Nc1scc(Br)c1-c1ncn[nH]1` [N-(4-bromo-3-(1H-1,2,4-triazol-5-yl)thiophen-2-yl)-2-(6-fluoroquinolin-7-yl)acetamide], at JNK1, the concentration for half-maximal inhibition (IC50) was below 100 nM.

For `Cn1ccc(-c2sccc2NC(=O)Cc2cccc3ccccc23)n1` [N-(2-(1-methyl-1H-pyrazol-3-yl)thiophen-3-yl)-2-(naphthalen-1-yl)acetamide], the IC50 on JNK1 and at JNK3 was above 10000 nM each time.

`COc1ccc(CC(=O)Nc2ccsc2-c2c[nH]cn2)cc1` [N-(2-(1H-imidazol-4-yl)thiophen-3-yl)-2-(4-methoxyphenyl)-acetamide]: the IC50 against JNK1 and at JNK3 was above 10000 nM throughout.

At JNK1, `O=C(Cc1ccc(C(F)(F)F)c2ncccc12)Nc1scc(Cl)c1-c1ncn[nH]1` [N-(4-chloro-3-(1H-1,2,4-triazol-5-yl)thiophen-2-yl)-2-(8-(trifluoromethyl)quinolin-5-yl)acetamide] showed an IC50 below 100 nM.

Compound `O=C(Cc1cccc2nccn12)Nc1scc(Br)c1-c1ncn[nH]1` [N-(4-bromo-3-(1H-1,2,4-triazol-5-yl)thiophen-2-yl)-2-(imidazo[1,2-a]pyridin-5-yl)acetamide] gave an IC50 at JNK1 below 100 nM.

In the case of `Cc1nc(-c2sccc2NC(=O)CN2C(=O)CCc3ccccc32)c[nH]1` [N-(2-(2-methyl-1H-imidazol-4-yl)thiophen-3-yl)-2-(2-oxo-3,4-dihydroquinolin-1(2H)-yl)acetamide], the IC50 against JNK1 and against JNK3 was above 10000 nM each time.

As to `COc1ccc(CC(=O)Nc2ccsc2-n2cncn2)cc1` [N-(2-(1H-1,2,4-triazol-1-yl)thiophen-3-yl)-2-(4-methoxyphenyl)acetamide], the half-maximal inhibitory concentration (IC50) against JNK1 and against JNK3 was above 10000 nM in each case.

In the case of `O=C(Cc1cccc2ncsc12)Nc1scc(Br)c1-c1ncn[nH]1` [2-(benzo[d]thiazol-7-yl)-N-(4-bromo-3-(1H-1,2,4-triazol-5-yl)thiophen-2-yl)acetamide], the IC50 at JNK1 and on JNK3 was below 100 nM throughout.

Consider `O=C(Cc1cc(F)cc2ncccc12)Nc1scc(Br)c1-c1ncn[nH]1` [N-(4-bromo-3-(1H-1,2,4-triazol-5-yl)thiophen-2-yl)-2-(7-fluoroquinolin-5-yl)acetamide], for which the 50% inhibitory concentration (IC50) against JNK1 and at JNK3 was below 100 nM throughout.

Regarding `CC(C)c1n[nH]c(-c2c(Cl)csc2NC(=O)CN2C(=O)CCc3ncccc32)n1` [N-(4-chloro-3-(3-isopropyl-1H-1,2,4-triazol-5-yl)thiophen-2-yl)-2-(2-oxo-3,4-dihydro-1,5-naphthyridin-1(2H)-yl)acetamide], the IC50 against JNK1 is below 100 nM.

Take `Cc1n[nH]c(-c2c(C)csc2NC(=O)Cc2cccc3ncccc23)n1` [N-(4-methyl-3-(3-methyl-1H-1,2,4-triazol-5-yl)thiophen-2-yl)-2-(quinolin-5-yl)acetamide]: the IC50 on JNK1 and on JNK3 was below 100 nM each time.

At JNK1, `O=C(CN1C(=O)C(F)(F)c2ccccc21)Nc1scc(Br)c1-c1nnc[nH]1` [N-(4-bromo-3-(4H-1,2,4-triazol-3-yl)thiophen-2-yl)-2-(3,3-difluoro-2-oxoindolin-1-yl)acetamide] registered an IC50 below 100 nM.

`COc1ccc(CC(=O)Nc2ccsc2-c2c[nH]c(C)n2)cc1` [2-(4-methoxyphenyl)-N-(2-(2-methyl-1H-imidazol-4-yl)thiophen-3-yl)acetamide]: the IC50 against JNK1 and against JNK3 was above 10000 nM throughout.

On to `O=C(Cn1c(=O)ccc2cc(C(F)(F)F)ccc21)Nc1ccsc1-c1cscn1` [2-(2-oxo-6-(trifluoromethyl)quinolin-1(2H)-yl)-N-(2-(thiazol-4-yl)thiophen-3-yl)acetamide], for which the IC50 at JNK1 and against JNK3 was below 100 nM each time.

As for `COc1ccc(CC(=O)Nc2ccsc2-c2nc(-c3ccncc3)n[nH]2)cc1` [2-(4-methoxyphenyl)-N-(2-(3-(pyridin-4-yl)-1H-1,2,4-triazol-5-yl)thiophen-3-yl)acetamide], the IC50 against JNK3 is above 10000 nM.

On to `N#Cc1csc(NC(=O)Cc2cccc3ncccc23)c1-c1cnccn1` [N-(4-cyano-3-(pyrazin-2-yl)thiophen-2-yl)-2-(quinolin-5-yl)acetamide], for which the IC50 against JNK1 and against JNK3 was below 100 nM throughout.

In turn, `Cc1nnc(-c2c(C)csc2NC(=O)Cc2ccc(-c3ccncc3)cc2)[nH]1` [N-(4-methyl-3-(5-methyl-4H-1,2,4-triazol-3-yl)thiophen-2-yl)-2-(4-(pyridin-4-yl)phenyl)acetamide] yielded an IC50 on JNK3 of 100 to 10000 nM.

For `O=C(Cc1cccc2cc(F)cnc12)Nc1scc(Br)c1-c1nc[nH]n1` [N-(4-bromo-3-(1H-1,2,4-triazol-3-yl)thiophen-2-yl)-2-(3-fluoroquinolin-8-yl)acetamide], the IC50 against JNK1 is below 100 nM.

Turning to `COc1ccc(CC(=O)Nc2ccsc2N2CCOC2=O)cc1` [2-(4-methoxyphenyl)-N-(2-(2-oxooxazolidin-3-yl)thiophen-3-yl)acetamide], on JNK3, the IC50 is above 10000 nM.

Take `Cn1ccnc1-c1sccc1NC(=O)Cc1cccc2ccccc12` [N-(2-(1-methyl-1H-imidazol-2-yl)thiophen-3-yl)-2-(naphthalen-1-yl)acetamide]: the IC50 on JNK1 and at JNK3 was above 10000 nM in each case.

These data come from patent publication US20190231751A1, “TREATMENT OF FIBROTIC DISORDERS WITH JUN N-TERMINAL KINASE INHIBITORS” (Imago Pharmaceuticals, Inc., priority 2016, published 2019).
